Source: PMC10850145, “Hormonal steroids induce multidrug resistance and stress response genes in Neisseria gonorrhoeae by binding to MtrR” (Nature Communications, 2024)
“And” between values parts separate entries of the source, which are not always exact repeats. Equal entries are not always repeated. Where two headings read alike, the source gives them in different places.

Columns and labels:
[1] = system: rpoH-lacZ expression; type: cell-based, Neisseria gonorrhoeae; conditions: for β-galactosidase activity (Miller units): ΔmtrR strain
[2] = system: N. gonorrhoeae; design: method as in PMID 816438; conditions: cited from earlier work
[3] = system: lptA-lacZ expression; assay: β-galactosidase assay, lptA-lacZ fusion (negative control gene); conditions: WT-lptA-lacZ
[4] = system: ngo1249-lacZ expression; assay: β-galactosidase assay, ngo1249-lacZ fusion (negative control gene); conditions: WT-NGO1249-lacZ

C[C@]12CC[C@@H]3c4ccc(O)cc4CC[C@H]3[C@@H]1CC[C@@H]2O [β-Estradiol, β-estradiol]
β-galactosidase activity (Miller units) ([1]; rpoH-lacZ, 12.5 µM hormone, single replicate): 161 Miller units and 99 Miller units | β-galactosidase activity (Miller units) ([1]; rpoH-lacZ, 25 µM hormone, single replicate): 232 Miller units and 156 Miller units and 133 Miller units | β-galactosidase activity (Miller units) ([1]; rpoH-lacZ, 50 µM hormone, single replicate): 195 Miller units and 151 Miller units and 114 Miller units | Miller units ([1]; rpoH-lacZ, ΔmtrR, 6.25 µM hormone, single replicate): 150 Miller units | Miller units ([1]; rpoH-lacZ, ΔmtrR, 12.5 µM hormone, single replicate): 165 Miller units | Miller units ([1]; rpoH-lacZ, ΔmtrR, 25 µM hormone, single replicate): 177 Miller units | Miller units ([1]; rpoH-lacZ, ΔmtrR, 50 µM hormone, single replicate): 178 Miller units | Miller units ([1]; single well, plate rows 5-8, plate columns 1-6 (first strain), 6.25 µM hormone): 29 Miller units and 43 Miller units and 45 Miller units and 49 Miller units | Miller units ([1]; single well, plate rows 5-8, plate columns 1-6 (first strain), 12.5 µM hormone): 60 Miller units and 54 Miller units and 64 Miller units and 67 Miller units | Miller units ([1]; single well, plate rows 5-8, plate columns 1-6 (first strain), 25 µM hormone): 91 Miller units and 57 Miller units and 68 Miller units and 64 Miller units | Miller units ([1]; single well, plate rows 5-8, plate columns 1-6 (first strain), 50 µM hormone): 89 Miller units and 63 Miller units and 78 Miller units and 82 Miller units | Miller units ([1]; single well, plate rows 5-8, plate columns 7-12 (second strain), 6.25 µM hormone): 64 Miller units and 67 Miller units and 73 Miller units and 90 Miller units | Miller units ([1]; single well, plate rows 5-8, plate columns 7-12 (second strain), 12.5 µM hormone): 68 Miller units and 72 Miller units and 67 Miller units and 94 Miller units | Miller units ([1]; single well, plate rows 5-8, plate columns 7-12 (second strain), 25 µM hormone): 84 Miller units and 81 Miller units and 76 Miller units and 65 Miller units | Miller units ([1]; single well, plate rows 5-8, plate columns 7-12 (second strain), 50 µM hormone): 80 Miller units and 82 Miller units and 76 Miller units | β-galactosidase activity, rpoH-lacZ, Mean ([1]; strain WT (FA19/pLES94-rpoH), hormone 6.25 µM): 83 Miller units | β-galactosidase activity, rpoH-lacZ, Mean ([1]; strain WT (FA19/pLES94-rpoH), hormone 12.5 µM): 113 Miller units | β-galactosidase activity, rpoH-lacZ, Mean ([1]; strain WT (FA19/pLES94-rpoH), hormone 25 µM): 148 Miller units | β-galactosidase activity, rpoH-lacZ, Mean ([1]; strain WT (FA19/pLES94-rpoH), hormone 50 µM): 162 Miller units | activation of rpoH ([1]; strain producing MtrR R176E): clearly weaker activation | β-galactosidase activity, rpoH-lacZ, Mean ([1]; strain ΔmtrR (FA19 ∆mtrR/pLES94-rpoH), hormone 6.25 µM): 163 Miller units | β-galactosidase activity, rpoH-lacZ, Mean ([1]; strain ΔmtrR (FA19 ∆mtrR/pLES94-rpoH), hormone 12.5 µM): 152 Miller units | β-galactosidase activity, rpoH-lacZ, Mean ([1]; strain ΔmtrR (FA19 ∆mtrR/pLES94-rpoH), hormone 25 µM): 175 Miller units | β-galactosidase activity, rpoH-lacZ, Mean ([1]; strain ΔmtrR (FA19 ∆mtrR/pLES94-rpoH), hormone 50 µM): 160 Miller units | β-galactosidase activity, rpoH-lacZ, Mean ([1]; strain ΔmtrR + mtrR D171A (pGCC3-mtrR D171A), hormone 6.25 µM): 74 Miller units | β-galactosidase activity, rpoH-lacZ, Mean ([1]; strain ΔmtrR + mtrR D171A (pGCC3-mtrR D171A), hormone 12.5 µM): 75 Miller units | β-galactosidase activity, rpoH-lacZ, Mean ([1]; strain ΔmtrR + mtrR D171A (pGCC3-mtrR D171A), hormone 25 µM): 76 Miller units | β-galactosidase activity, rpoH-lacZ, Mean ([1]; strain ΔmtrR + mtrR D171A (pGCC3-mtrR D171A), hormone 50 µM): 80 Miller units | β-galactosidase activity, rpoH-lacZ, Mean ([1]; strain ΔmtrR + mtrR WT (pGCC3-mtrR), hormone 6.25 µM): 42 Miller units | β-galactosidase activity, rpoH-lacZ, Mean ([1]; strain ΔmtrR + mtrR WT (pGCC3-mtrR), hormone 12.5 µM): 61 Miller units | β-galactosidase activity, rpoH-lacZ, Mean ([1]; strain ΔmtrR + mtrR WT (pGCC3-mtrR), hormone 25 µM): 70 Miller units | β-galactosidase activity, rpoH-lacZ, Mean ([1]; strain ΔmtrR + mtrR WT (pGCC3-mtrR), hormone 50 µM): 78 Miller units | growth inhibition of N. gonorrhoeae [2]: arrest N. gonorrhoeae growth | Mean Miller units ([3]; 0.1 µM hormone): 4.54 Miller units | Mean Miller units ([3]; 1 µM hormone): 7 Miller units | Mean Miller units ([3]; 10 µM hormone): 4.45 Miller units | Mean Miller units ([3]; 50 µM hormone): 6.62 Miller units | Mean Miller units ([3]; 100 µM hormone): 6 Miller units | Mean Miller units ([4]; 0.1 µM hormone): 5 Miller units | Mean Miller units ([4]; 1 µM hormone): 5 Miller units | Mean Miller units ([4]; 10 µM hormone): 5.32 Miller units | Mean Miller units ([4]; 50 µM hormone): 4.874 Miller units | Mean Miller units ([4]; 100 µM hormone): 4.606 Miller units
